Source: BigSolDB 2.1

CC(C)(C)OC(=O)N[C@@H](CCC(N)=O)C(=O)O
solubility (mole fraction)
Conditions	283.15 K	288.15 K	293.15 K	298.15 K	303.15 K	308.15 K	313.15 K	318.15 K	323.15 K
in 2-butanone	0.0208	0.0219	0.0247	0.0294	0.035	0.0408	0.0517	0.068	0.0995
in acetone	0.0586	0.0675	0.0797	0.0959	0.105	0.127	0.146	0.168	0.187
in acetonitrile	0.00293	0.00389	0.00493	0.0064	0.008	0.0113	0.0165	0.0243	0.0356
in ethanol	0.13	0.139	0.148	0.155	0.165	0.177	0.191	0.202	–
in ethyl acetate	0.00199	0.00241	0.00301	0.00377	0.00475	0.00596	0.00774	0.0102	0.0145
in isobutanol	0.0317	0.0398	0.0479	0.055	0.0676	0.0766	0.0843	0.0943	0.108
in isopropanol	0.0536	0.0626	0.0789	0.0922	0.108	0.124	0.153	0.175	0.198
in methyl acetate	0.00534	0.00588	0.00699	0.00843	0.0115	0.0173	0.0254	0.0393	0.0649
in n-butanol	0.0427	0.0487	0.0554	0.0649	0.0748	0.0924	0.119	0.146	–
in n-pentanol	0.0343	0.0352	0.0382	0.0417	0.0481	0.0573	0.07	0.0946	–
in n-propanol	0.057	0.0698	0.0803	0.0938	0.116	0.135	0.162	0.207	–
in water	0.00718	0.00807	0.00935	0.0126	0.0205	0.0307	0.0554	0.0905	–
